Measurements: patent US7348152B2, “Rhamnose binding protein” (Solbec Pharmaceutical Limited, priority 2002, dated 2008)

Tests used:
[1] = test system: rhamnose binding protein (RBP); experiment: Dissociation constant of the receptor estimated from the cytotoxicity functions; conditions: read-out: dissociation constant of RBP when bound to the rhamnose moiety of solamargine
Method: Given that the evaluation of the cytotoxicities for different cell lines needed to be conducted using different sized cell populations, it was considered prudent to determine the effect, if any, of cell number on the measured value of LD50. Five cell lines, HT-29, LS174-T, 5637, A431 and MCF-7 were evaluated at four different seeding cell densities. Hs578T and CCD 18Lu were evaluated at three seeding densities and Hs578Bst, both early and late passage cells, were evaluated at two seeding densities.
In order that the full range of cell densities be evaluated with at least one cell line, a 3-day version of the cytotoxicity was developed. The cell lines involved were recalibtrated for the 3-day format. Multiwell plates were seeded on day 1. Cells were treated with BEC® on day 2 and MTT was added twenty four hours later.
Comparing the two fitted functions, two distinct regions are discernable (FIG. 8). […] We estimate that the dissociation constant for this receptor is likely to be of the order of 1.5×10^−6 M.

A2058 cells [2] = experiment: Staining of cells with fluorescein tagged rhamnose probe (FRITC); type: cell-based
Method: A2058 cells were coated at low density in a microscope compatible chamber. The cells were washed with HBS^2+ then incubated with FRITC (top concentration of DMSO=2.5%) for 5-15 min at 37° C. The FRITC was removed, the cells washed twice with HBS^2+ and examined under a visible light microscope. The incubation was repeated with 0-100 μM fluorescein-amine, and for 25 and 6 μM FRITC using a 10^3× excess of unlabelled rhamnose.
A fluorescein tagged rhamnose probe (FRITC) was prepared as previously described and used to stain A2058 cells.
FRITC at concentrations from 3-25 μM was incubated with A2058 cells for 15 minutes at 37° C.

A2058 cells [3] = experiment: Co-administration of BEC® and rhamnose, cell survival; type: cell-based; conditions: 5 mM rhamnose, 5000 cells, 5 minutes and 4 days
Method: A2058 cells at two different cell densities were treated with BEC® +/−rhamnose and cell survival was monitored after 4 days. The treatments comprised: (i) BEC® only for 4 days (ii) BEC® only for 5 minutes (iii) BEC® and 5 mM rhamnose for 4 days and (iv) BEC® and 5 mM rhamnose for 5 minutes.

RBP bearing cells = experiment: Cell adhesion between RBP bearing cells; type: cell-based; conditions: RBP binds ligand

Molecule: C[C@@H]1CC[C@@]2(NC1)O[C@H]1C[C@H]3[C@@H]4CC=C5C[C@@H](O[C@@H]6O[C@H](CO)[C@@H](O[C@@H]7O[C@@H](C)[C@H](O)[C@@H](O)[C@H]7O)[C@H](O)[C@H]6O[C@@H]6O[C@@H](C)[C@H](O)[C@@H](O)[C@H]6O)CC[C@]5(C)[C@H]4CC[C@]3(C)[C@H]1[C@@H]2C [solamargine]
- Kd [1]: ~1500 nM

Molecule: Fluorescein Rhamnose-ITC [FRITC]
- fluorescent staining of cells (A2058 cells [2]; FRITC 3-25 μM, 15 minutes at 37° C.): found to fluoresce

Molecule: C[C@H](O)[C@H](O)[C@@H](O)[C@@H](O)C=O [rhamnose]
- inhibition of FRITC staining (A2058 cells [2]; co-incubation with free rhamnose at 10 mM): staining could be inhibited
- rhamnose competition with BEC® uptake (protective effect) (A2058 cells [3]): affects the amount of BEC® taken up by the cells
- cell adhesion of RBP bearing cells (RBP bearing cells): inhibited
